What follows are compounds tested against Sphingosine 1-phosphate receptor 1 (Homo sapiens) (UniProt P21453) (assay: hS1P1 ERK Phosphorylation (S1P1 pERK): hS1P1/CHO cells were plated into BD Amine 384-well plates the day before the assay. On the day of the assay, growth medium was removed and replaced with serum-free medium (Ham's F-12 Invitrogen) and incubated for 2 hours. Test compounds pre-diluted in HBSS (Gibco)/20 mM HEPES (Gibco) were transferred to the cell plates and incubated for 7 minutes at 37° C. …).
Chain of Sphingosine 1-phosphate receptor 1 (Homo sapiens) (P21453 whole entry, looked up): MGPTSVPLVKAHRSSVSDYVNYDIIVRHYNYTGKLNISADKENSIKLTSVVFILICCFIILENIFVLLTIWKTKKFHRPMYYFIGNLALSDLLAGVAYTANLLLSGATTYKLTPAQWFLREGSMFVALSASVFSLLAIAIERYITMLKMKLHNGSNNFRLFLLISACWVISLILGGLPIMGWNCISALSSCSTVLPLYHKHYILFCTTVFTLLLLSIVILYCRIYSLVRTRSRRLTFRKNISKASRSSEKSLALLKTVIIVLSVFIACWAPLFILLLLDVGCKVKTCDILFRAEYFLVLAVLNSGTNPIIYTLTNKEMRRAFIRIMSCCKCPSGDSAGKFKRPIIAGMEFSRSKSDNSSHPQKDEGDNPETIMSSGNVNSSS

EC50, in the range around 55 nM:
CCCC/C=C/[C@@H]1CCc2cc([C@H]3CC[C@](N)(COP(=O)(O)O)C3)ccc2C1
CCCCCC[C@H]1COc2cc([C@H]3CC[C@](N)(COP(=O)(O)O)C3)ccc2C1
CCCCCCC1CCc2cc(C3CCC(N)(COP(=O)(O)O)C3)ccc2O1 (stereo not drawn)

Source: ChEMBL document CHEMBL5726054, “Substituted bicyclic compounds” (2019)
